Measured values from article PMC12609579, “Acute Myeloid Leukemia: A Key Role of DGKα and DGKζ in Cell Viability” (Cells, 2025).

Key:
THP-1 cells [1] = assay: alamarBlue cell viability assay, THP-1; format: cell-based; details: Homo sapiens
Protocol: The alamarBlue assay was performed to assess cell viability in presence of chemical inhibitors. A total of 50,000 cells per well were seeded in a 96-wells plate in a volume of 100 μL of complete medium together with 10 μL of 10× concentrated inhibitor solution and then incubated for either 24 or 72 h. Each experimental condition was performed in technical quadruplicates, using cells treated with equal amounts of DMSO vehicle as control and medium alone as background. After incubation, alamarBlue was added to each well at a final concentration of 0.15 mg/mL. The fluorescence of the samples was measured 24 h later using a Spark 10 M Multimode Plate Reader (Tecan, Switzerland) with excitation and emission wavelengths of 535 nm and 590 nm, respectively. For dose–response curve fitting, fluorescence values were normalized according to the following formula:Viability (%) = [(sample mean fluorescence)/(DMSO control mean fluorescence)] ∗ 100
Data are the results of at least five independent experiments analyzed with GraphPad Prism 10 as [inhibitor] vs. normalized response curve (variable slope, after manual outlier removal).

[2] = test system: Peripheral blood lymphocytes (PBLs); assay: alamarBlue cell viability assay, PBLs from healthy donors; format: cell-based, human; details: for IC50: Homo sapiens, Lymphocyte, PBLs from healthy donors
Protocol: These four cell lines were employed in this study as in vitro models of AML, cell line identity was verified through a Cell Line Authentication Test conducted by Eurofins Genomics (Ebersberg, Germany) or by the internal university service. The resulting markers matched 100% with those reported in the ATCC database. […] L. Manzoli (Bologna, Italy), is reported as K562-related, differing from K526 by a single marker. Cells were cultured in RPMI-1640 medium (ThermoFisher Scientific, Waltham, MA, USA) supplemented with 10% heat-inactivated fetal bovine serum (FBS) and 1% penicillin-streptomycin, following the handling protocols provided by ATCC (Manassas, VA, USA). Additionally, healthy donor blood samples were provided by the UPO biobank under approved Ethical Committee authorization (Comitato Etico Interaziendale A.O.U. Maggiore della Carità 865/CE-CE206/2022 date 24 October 2022) and with informed consent for research use. Peripheral blood mononuclear cells were isolated by density gradient centrifugation using Ficoll-Paque PLUS (GE 14 Healthcare, Chicago, IL, USA), washed, and resuspended at a concentration of 2 × 10^6 cells/mL in RPMI-1640 medium containing 10% heat-inactivated FBS. Peripheral blood lymphocytes (PBLs) were selected by the treatment with 1 μg/mL anti-CD3 (clone OKT3) and anti-CD28 (clone CD28.2) human antibodies for 72 h. […]
The alamarBlue assay was performed to assess cell viability in presence of chemical inhibitors. […] The fluorescence of the samples was measured 24 h later using a Spark 10 M Multimode Plate Reader (Tecan, Switzerland) with excitation and emission wavelengths of 535 nm and 590 nm, respectively. For dose–response curve fitting, fluorescence values were normalized according to the following formula:Viability (%) = [(sample mean fluorescence)/(DMSO control mean fluorescence)] ∗ 100
Data are the results of at least five independent experiments analyzed with GraphPad Prism 10 as [inhibitor] vs. normalized response curve (variable slope, after manual outlier removal). […]

THP-1 cells [3] = assay: Proteomic profiling (DIA mass spectrometry) of treated THP-1 cells vs DMSO; format: cell-based, human
Protocol: Cells were lysed in RIPA buffer and sonicated. Proteins were precipitated with cold acetone, pelleted, and resuspended. Reduction was carried out in 25 µL of 100 mM NH4HCO3 with 2.5 µL of 200 mM DTT (Merck, St. Louis, MO, USA) at 60 °C for 45 min, followed by alkylation with 10 µL of 200 mM iodoacetamide (Merck, St. Louis, MO, USA) for 1 h at room temperature in the dark. Excess iodoacetamide was quenched by adding 200 mM DTT. Proteins were then digested with trypsin, dried by SpeedVac, and desalted. Peptides were analyzed on an Ultimate 3000 RSLCnano system coupled to an Orbitrap Exploris 480 equipped with FAIMS (all from Thermo Fisher Scientific). Samples were loaded onto a reversed-phase C18 column (15 cm × 75 µm i.d., Thermo Fisher Scientific) and eluted at 500 nL min^−1 using a 6–95% solvent B gradient over 41 min, followed by 1 min of re-equilibration at 6% B. Data were acquired in positive mode with a spray voltage of 2500 V and FAIMS in standard resolution at a compensation voltage of −45 V. Data-independent acquisition (DIA) was performed with a precursor m/z range of 400–900, using 8 m/z isolation windows with 1 m/z overlap, HCD collision energy of 27%, Orbitrap resolution of 30,000, RF Lens 50%, normalized AGC target 1000, maximum injection time 25 ms, and 1 microscan. DIA data were processed with DIA-NN (v1.8.1) in library-free mode, applying deep-learning prediction for spectra, retention times, and ion mobility. Searches assumed Trypsin/P specificity, precursor charges 1–4, peptide lengths of 7–30 amino acids, and precursor m/z values of 400–900, allowing up to two missed cleavages. Carbamidomethylation of Cys was set as a fixed modification; Met oxidation was set as a variable modification (maximum two per peptide). The false discovery rate was maintained at 1%.
Normalized data from two independent proteomic experiments were obtained, each comparing a treatment condition to DMSO: (1) ritanserin vs. DMSO and (2) BAY 2965501 vs. DMSO. For each condition, three biological replicates were analyzed.
Protein abundance differences were calculated separately for each treatment relative to DMSO using a t-test, generating log2 fold change (log2FC) and adjusted p-values (p-adj). All proteins identified by UniProt ID were annotated with the corresponding gene symbol using QIAGEN Ingenuity Pathway Analysis (IPA; QIAGEN Inc., https://digitalinsights.qiagen.com/IPA, accessed on 5 June 2025). Proteins lacking a gene symbol were annotated as NA [42].
Data were filtered to include only proteins with |log2FC| > 2 and p-adj < 0.05, and retaining those annotated with a gene symbol.
Cells treated with equal amounts of DMSO (vehicle) were used as controls.

[4] = test system: normal hematopoietic stem cell samples; set-up: method as in PMID 37392305; details: 40 μM; cited from earlier work
[5] = target: serotonin 5-HT2C receptor; set-up: method as in PMID 2860558; details: cited from earlier work

Cc1nc2sccn2c(=O)c1CCN1CCC(=C(c2ccc(F)cc2)c2ccc(F)cc2)CC1 [ritanserin]
IC50 (THP-1 cells [1]; THP-1, 24 h, THP-1, 24 h treatment then alamarBlue 24 h): 37 ± 1.4 µM | IC50 (THP-1 cells [1]; THP-1, THP-1, 72 h treatment then alamarBlue 24 h): 32 ± 1.5 µM | IC50 ([2]; 24 h): 42.9 ± 1.3 µM | IC50 ([2]; 72 h): 32.5 ± 1.9 µM | cell death of IL-2 stimulated proliferating PBLs ([2]; untransformed PBLs, 50 μM): complete cell death | number of significantly downregulated proteins (THP-1 cells [3]; THP-1, 24 h, ritanserin 50 µM, BAY 2965501 75 µM, vs DMSO): approximately 1200 | number of significantly upregulated proteins (THP-1 cells [3]; THP-1, 24 h, ritanserin 50 µM, vs DMSO): 14 | log2FC A2M (P01023) protein abundance vs DMSO (THP-1 cells [3]; THP-1, ritanserin 50 µM, 24 h): 4.998 | log2FC AAAS (Q9NRG9) protein abundance vs DMSO (THP-1 cells [3]; THP-1, ritanserin 50 µM, 24 h): 0.1245 | log2FC AACS (Q86V21) protein abundance vs DMSO (THP-1 cells [3]; THP-1, ritanserin 50 µM, 24 h): 1.025 | log2FC AAK1 (Q2M2I8) protein abundance vs DMSO (THP-1 cells [3]; THP-1, ritanserin 50 µM, 24 h): -2.961 | log2FC AAMDC (Q9H7C9) protein abundance vs DMSO (THP-1 cells [3]; THP-1, ritanserin 50 µM, 24 h): -1.488 | number of differentially abundant proteins (THP-1 cells [3]; THP-1, |log2FC| > 2 and p-adj < 0.05, with gene symbol, vs DMSO): 1210 | apoptosis, % of cells [4]: below 30% | Ki [5]: 0.00071 µM
